Measured values: patent US10874610B2, “Extracellular vesicle-based diagnostics and engineered exosomes for targeted therapeutics against cancer” (Northwestern University, priority 2016, dated 2020)

Tested on: BCSCs
Assay: Cellular internalization pathway of bioengineered exosomes using endocytic pathway inhibitors
Format: cell-based
Conditions: BCSCs pretreated with inhibitor, then PKH67 labeled exosomes; microscopy and flow cytometry
Procedure: The mode of cellular internalization of the bioengineered exosomes was examined by using different endocytic pathway inhibitors. BCSCs were pretreated with different inhibitors including sucrose (inhibitor of clathrin-mediated endocytosis), amiloride (inhibitor of macropinocytosis), and filipin (inhibitor of caveolar uptake pathway), followed by the incubation with PKH67 labeled exosomes.

Compound | effect of inhibitor on cellular internalization of exosomes
N=C(N)NC(=O)c1nc(Cl)c(N)nc1N [amiloride] | inhibited
OC[C@H]1O[C@@](CO)(O[C@H]2O[C@H](CO)[C@@H](O)[C@H](O)[C@H]2O)[C@@H](O)[C@@H]1O [sucrose] | inhibited
